Data as given in patent US20110009351A1, “SCREENING ASSAY TO IDENTIFY CORRECTORS OF PROTEIN TRAFFICKING DEFECTS” (Traffick Therepeutics Inc., priority 2007, published 2011).
Structures can show the parent of a compound that is named as a salt.

Key:
ΔF508-CFTR [1] = target: T1, ΔF508-CFTR (Homo sapiens, UniProt P13569, DEL508-508); experiment: iodide efflux assay in CFBE41o− airway epithelial cells; format: cell-based; set-up: expressed in transfected cells; host or cells: CFBE41o- (ΔF508/ΔF508) transduced with ΔF508-CFTR, TranzVector lentivirus, provided by J. P. Clancy; settings: compared with BHK
Procedure: Experiments were performed by hand or with a robotic liquid handling system (BioRobot 8000, Qiagen, USA) using Qiagen 4.1 software. Cells were cultured in 24-well plates until they reached confluence in order to perform parallel experiments and comparison analysis. After treatment (or not) with a test compound, medium in each well was replaced with 1 ml of iodide loading buffer (in mM: 136 NaI, 3 KNO3, 2 Ca(NO3)2, 11 glucose and 20 Hepes pH 7.4) for 1 hour at 37° C. to permit the I′ to reach equilibrium. […] The loss of intracellular I^− was determined by removing the medium and replacing it with fresh efflux buffer every 1 min for up to 11 min. […] The iodide concentration of each aliquot was determined using an iodide-sensitive electrode (Orion Research Inc., Boston, Mass., USA or Ecomet) and converted to iodide content (i.e. the amount of iodide released during the 1 min interval). […]
Iodide effluxes were performed using a robotic liquid handling system (BioRobot 8000, Qiagen, Valencia, Calif.) and Qiagen 4.1 software. […] Efflux was measured by replacing the medium with 300 μl fresh efflux buffer at 1 min intervals for up to 11 min. […] Iodide concentration was measured in each aliquot (300 μl) using an iodide-sensitive electrode (Orion Research Inc., Boston, Mass.). […]

ΔF508-CFTR [2] = target: T1, ΔF508-CFTR; experiment: iodide efflux assay in BHK cells expressing ΔF508-CFTR; format: cell-based; set-up: which was then ligated into full length pNUT-CFTR linearized using Hpa1 and Pml1; expressed in transfected cells; settings: 24 h
Procedure: Experiments were performed by hand or with a robotic liquid handling system (BioRobot 8000, Qiagen, USA) using Qiagen 4.1 software. Cells were cultured in 24-well plates until they reached confluence in order to perform parallel experiments and comparison analysis. After treatment (or not) with a test compound, medium in each well was replaced with 1 ml of iodide loading buffer (in mM: 136 NaI, 3 KNO3, 2 Ca(NO3)2, 11 glucose and 20 Hepes pH 7.4) for 1 hour at 37° C. to permit the I′ to reach equilibrium. At the beginning of each experiment, the loading buffer was removed by aspiration and cells were washed eight times with efflux buffer (same as loading buffer except that NaI was replaced with 136 mM NaNO3) to remove extracellular I^− in each well. The loss of intracellular I^− was determined by removing the medium and replacing it with fresh efflux buffer every 1 min for up to 11 min. The first four aliquots were recovered at 1-minute intervals in an empty 24-well plate and used to establish a stable baseline in efflux buffer alone. A stimulation buffer (efflux buffer containing 50 μM genistein+10 μM forskolin) was then added and sampling continued with replacement by stimulation buffer. The iodide concentration of each aliquot was determined using an iodide-sensitive electrode (Orion Research Inc., Boston, Mass., USA or Ecomet) and converted to iodide content (i.e. the amount of iodide released during the 1 min interval). Curves were constructed by plotting concentration versus time. Data are presented as means±SEM.
Iodide effluxes were performed using a robotic liquid handling system (BioRobot 8000, Qiagen, Valencia, Calif.) and Qiagen 4.1 software. Cells were cultured to confluence in 24-well plates. After treatment (or not) with a test compound, the medium in each well was replaced with 1 ml of iodide loading buffer: 136 mM NaI, 3 mM KNO3, 2 mM Ca(NO3)2, 11 mM glucose, 20 mM Hepes, pH 7.4 with NaOH) and incubated for 1 h at 37° C. At the beginning of each experiment, the loading buffer was removed by aspiration and cells were washed eight times with 300 μl efflux buffer (same as loading buffer except that NaI was replaced with 136 mM NaNO3) to remove extracellular I^−. Efflux was measured by replacing the medium with 300 μl fresh efflux buffer at 1 min intervals for up to 11 min. The first four aliquots were used to establish a stable baseline, then buffer containing 10 μM forskolin+50 μM genistein was used to stimulate CFTR activity. Iodide concentration was measured in each aliquot (300 μl) using an iodide-sensitive electrode (Orion Research Inc., Boston, Mass.). Relative iodide efflux rate was calculated using the difference between maximum (peak) iodide concentration during stimulation and minimum iodide concentration before stimulation (in μM/min). […]

ΔF508-CFTR [3] = target: T2, ΔF508-CFTR (Mus musculus, UniProt P26361, DEL508-508); experiment: in vivo treatment of ΔF508-CFTR mice by gavage, Isc of freshly isolated ileum; settings: 50 mg/kg by gavage, once per day, 2 days
T2 construct: from tissue; host or cells: ileal mucosa of homozygous ΔF508 mice (A11 ex vivo, A12 after gavage); salivary secretion in the living mouse (A13)
Procedure: (§1) Glafenine was tested ex vivo and in vivo using ileum from homozygous Δ508-CFTR mice (CFTR^tm1 Eur; van Doorninck et al., 1995) and wild-type littermates controls. Mice were 14-17 weeks old, weighed 24-30 g, and were genotyped by standard PCR methods using tail DNA. The mice were kept in a pathogen-free environment in the animal facility at McGill University and fed a high protein diet (SRM-A, Hope Farms, Woerden, NL) modified to contain pork instead of beef. All procedures followed Canadian Institutes of Health Research (CIHR) guidlines and were approved by the faculty Animal Care Committee. For ex vivo experiments, ileal mucosa was stripped of muscle and incubated in William's E-Glutamax medium supplemented with insulin (10 μg/ml), 100 U/ml penicillin, and 100 μg/ml streptomycin and dexamethasone (1.6 ng/ml) containing 0.1% DMSO (control) or DMSO containing glafenine for 5 h. The tissue was then rinsed repeatedly and mounted in Ussing chambers to measure […]. For in vivo experiments, mice were feed once per day by gavage with saline containing glafenine (50 mg/kg) or vehicle alone (0.1% DMSO). After 2 days of glafenine treatment the mice were euthanized under CO2, the intestine was dissected and the short circuit current was measured as described above.

ΔF508-CFTR [4] = target: T2, ΔF508-CFTR; experiment: ex vivo treatment of ileum from ΔF508-CFTR mice, Isc response to forskolin+genistein; settings: 20 μM, 5-6 h ex vivo
Procedure: as §1

T2 sequence (P26361 with tags, fused parts or gaps DEL508-508): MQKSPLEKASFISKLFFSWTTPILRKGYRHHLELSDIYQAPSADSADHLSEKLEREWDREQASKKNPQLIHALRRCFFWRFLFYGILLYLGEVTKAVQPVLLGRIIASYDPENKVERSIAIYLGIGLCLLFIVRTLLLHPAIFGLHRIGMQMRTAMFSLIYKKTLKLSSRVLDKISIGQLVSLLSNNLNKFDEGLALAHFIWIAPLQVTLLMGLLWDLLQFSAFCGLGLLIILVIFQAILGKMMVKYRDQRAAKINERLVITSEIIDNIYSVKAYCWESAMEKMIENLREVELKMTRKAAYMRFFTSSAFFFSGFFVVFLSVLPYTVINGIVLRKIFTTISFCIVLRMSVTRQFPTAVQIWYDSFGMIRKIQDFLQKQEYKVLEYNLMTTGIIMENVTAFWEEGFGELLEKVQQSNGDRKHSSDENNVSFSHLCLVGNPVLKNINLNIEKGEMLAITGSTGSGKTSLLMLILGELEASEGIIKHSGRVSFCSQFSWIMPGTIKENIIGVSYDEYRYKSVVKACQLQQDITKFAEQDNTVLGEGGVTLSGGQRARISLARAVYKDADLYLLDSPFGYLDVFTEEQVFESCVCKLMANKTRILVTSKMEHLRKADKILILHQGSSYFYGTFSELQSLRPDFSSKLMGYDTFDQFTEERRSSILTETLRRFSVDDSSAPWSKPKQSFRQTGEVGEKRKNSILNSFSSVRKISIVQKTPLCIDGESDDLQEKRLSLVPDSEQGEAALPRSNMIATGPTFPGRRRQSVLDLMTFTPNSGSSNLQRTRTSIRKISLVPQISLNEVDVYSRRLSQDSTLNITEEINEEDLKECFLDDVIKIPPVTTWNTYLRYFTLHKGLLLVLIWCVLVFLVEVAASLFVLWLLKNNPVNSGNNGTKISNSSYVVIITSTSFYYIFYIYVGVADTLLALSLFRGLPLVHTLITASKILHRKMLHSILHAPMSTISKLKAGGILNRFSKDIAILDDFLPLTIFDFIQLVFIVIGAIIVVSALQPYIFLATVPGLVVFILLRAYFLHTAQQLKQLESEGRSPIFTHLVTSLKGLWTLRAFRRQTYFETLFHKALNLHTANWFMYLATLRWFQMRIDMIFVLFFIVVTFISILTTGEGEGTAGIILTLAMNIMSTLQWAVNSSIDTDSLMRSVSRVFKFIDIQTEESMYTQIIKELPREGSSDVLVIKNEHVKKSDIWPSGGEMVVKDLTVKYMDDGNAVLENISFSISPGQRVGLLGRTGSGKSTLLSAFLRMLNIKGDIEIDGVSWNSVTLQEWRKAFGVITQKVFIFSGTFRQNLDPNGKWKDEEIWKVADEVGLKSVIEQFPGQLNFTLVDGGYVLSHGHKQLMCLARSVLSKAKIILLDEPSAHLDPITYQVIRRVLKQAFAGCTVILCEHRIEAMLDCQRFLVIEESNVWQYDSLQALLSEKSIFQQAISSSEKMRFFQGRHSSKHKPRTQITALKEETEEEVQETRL
T1 sequence (P13569 with tags, fused parts or gaps DEL508-508): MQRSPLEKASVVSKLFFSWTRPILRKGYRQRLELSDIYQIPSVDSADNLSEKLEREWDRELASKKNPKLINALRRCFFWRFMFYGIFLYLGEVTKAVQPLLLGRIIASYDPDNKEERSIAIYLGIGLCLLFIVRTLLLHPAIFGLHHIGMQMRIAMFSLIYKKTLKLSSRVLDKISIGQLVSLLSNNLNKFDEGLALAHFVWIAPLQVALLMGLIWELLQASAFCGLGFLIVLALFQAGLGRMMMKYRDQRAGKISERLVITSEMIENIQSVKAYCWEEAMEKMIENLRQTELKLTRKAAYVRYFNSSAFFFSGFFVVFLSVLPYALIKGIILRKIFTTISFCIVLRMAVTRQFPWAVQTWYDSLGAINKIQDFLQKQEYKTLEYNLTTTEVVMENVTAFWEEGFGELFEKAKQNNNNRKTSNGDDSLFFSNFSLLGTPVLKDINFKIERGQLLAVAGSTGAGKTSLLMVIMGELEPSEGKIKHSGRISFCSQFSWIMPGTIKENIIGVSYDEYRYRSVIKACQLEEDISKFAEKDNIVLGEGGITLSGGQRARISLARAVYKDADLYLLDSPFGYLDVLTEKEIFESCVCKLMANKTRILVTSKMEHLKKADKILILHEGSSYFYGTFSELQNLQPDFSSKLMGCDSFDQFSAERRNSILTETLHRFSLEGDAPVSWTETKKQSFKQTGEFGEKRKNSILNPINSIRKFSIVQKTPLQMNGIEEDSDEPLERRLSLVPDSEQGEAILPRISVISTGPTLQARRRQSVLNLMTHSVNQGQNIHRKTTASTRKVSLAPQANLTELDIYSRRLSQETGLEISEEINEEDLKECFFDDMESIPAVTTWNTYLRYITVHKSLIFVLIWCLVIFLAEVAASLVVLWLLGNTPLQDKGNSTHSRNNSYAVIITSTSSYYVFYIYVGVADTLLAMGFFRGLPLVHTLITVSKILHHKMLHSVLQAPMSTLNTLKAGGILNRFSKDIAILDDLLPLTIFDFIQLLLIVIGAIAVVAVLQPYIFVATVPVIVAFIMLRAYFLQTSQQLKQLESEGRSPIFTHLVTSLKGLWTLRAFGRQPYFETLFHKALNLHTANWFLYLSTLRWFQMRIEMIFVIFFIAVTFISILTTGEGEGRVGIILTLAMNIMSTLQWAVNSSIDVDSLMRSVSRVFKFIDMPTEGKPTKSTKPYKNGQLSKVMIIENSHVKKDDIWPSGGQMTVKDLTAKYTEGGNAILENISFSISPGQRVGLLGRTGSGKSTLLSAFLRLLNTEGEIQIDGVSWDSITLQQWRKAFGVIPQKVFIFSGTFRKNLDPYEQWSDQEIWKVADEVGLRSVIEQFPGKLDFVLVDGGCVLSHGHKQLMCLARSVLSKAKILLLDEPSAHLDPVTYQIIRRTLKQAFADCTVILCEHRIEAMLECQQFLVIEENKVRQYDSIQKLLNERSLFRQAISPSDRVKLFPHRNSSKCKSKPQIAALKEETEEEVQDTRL

SMILES: O=C(OCC(O)CO)c1ccccc1Nc1ccnc2cc(Cl)ccc12 (stereo not drawn) [Glafenine hydrochloride, 2-[(7-chloro-4-quinolinyl)amino]benzoic acid 2,3-dihydroxypropyl ester]
- rescue of iodide efflux (ΔF508-CFTR [1]): more striking
- increase of cAMP-stimulated iodide efflux response (ΔF508-CFTR [2]; 10 μM, 10 μM forskolin+50 μM genistein, versus vehicle): 3.3 fold
- concentration required for significant restoration of ΔF508-CFTR function (ΔF508-CFTR [2]; iodide efflux, BHK): 1 to 10 µM
- forskolin+genistein-stimulated current compared to mice fed with saline alone (ΔF508-CFTR [3]): ~7 fold
- forskolin+genistein-stimulated current versus vehicle alone (ΔF508-CFTR [4]): ~12 fold
- restoration of the secretory response observed in wild-type mice (ΔF508-CFTR [4]): ~46% and ≈ 46%
